Laboratory results published in US8569487B2, “Pyridazine compound and use thereof” (priority 2006, dated 2013).
Like-named read-outs stand apart in the source and are kept apart here.

Experiments:
[1] = system: HCV genotype 2a (J6/JFH-Rluc) virus; assay: Huh-7 cells chronically infected with HCV genotype 2a (J6/JFH-Rluc) virus, luciferase assay; type: cell-based; details: 3 days, absence of HSA
Method: (§1) The antiviral activity of compound (1) against HCV genotype 2a was tested in cells chronically infected with the genotype 2a virus as well as in cells replicating a subgenomic 2a replicon. Huh-7 cells containing chronically replicating HCV genotype 2a (J6/JFH-Rluc) virus or subgenomic replicons were cultured with compound (1) or 2′CMeA for 3 days in the absence of human serum albumin. After cultivation, the amount of luciferase in 2a-virus containing cells and HCV NS3 protease activity in the 2a replicon-containing cells was determined using Promega's luciferase assay and a novel time-resolved fluorescence assay, respectively.

SL3 cells = assay: Cytotoxicity, CellTiter-Glo Luminescence Cell Viability assay, SL3; type: cell-based; details: HCV replicon-containing cell line
HepG2 cells = assay: Cytotoxicity, CellTiter-Glo Luminescence Cell Viability assay, HepG2; type: cell-based
MH4 cells = assay: Cytotoxicity, CellTiter-Glo Luminescence Cell Viability assay, MH4; type: cell-based; details: HCV replicon-containing cell line
[2] = system: HCV genotype 2a subgenomic replicon; assay: HCV genotype 2a subgenomic replicon in Huh-7 cells, NS3 protease activity readout; type: cell-based
Method: as §1

Huh-7 lucneo cells = assay: Cytotoxicity, CellTiter-Glo Luminescence Cell Viability assay, Huh-7 lucneo; type: cell-based
[3] = system: HCV genotype 1a (H77/neo) replicon; assay: HCV genotype 1a (H77/neo) replicon, quantitative real-time PCR assay; type: cell-based; details: 3 days, absence of HSA
Method: (§2) HCV genotype 1b (Con-1/lucneo) and 1a (H77/neo) replicon cells were incubated with serial dilutions of compound (1) 2′C-methyl adenosine (2′CMeA) or IFNα for 3 days in the absence or presence of 40 mg/mL human serum albumin (HSA).

[4] = system: HCV genotype 1b (Con-1/lucneo) replicon; type: cell-based
Method: as §2

MT4 cells = assay: Cytotoxicity, CellTiter-Glo Luminescence Cell Viability assay, MT4; type: cell-based
[5] = Intrinsic solubility and pH solubility profile; type: physicochemical; details: pH 7.3
[6] = Phase-1 first-in-human trial, pharmacokinetics; type: in vivo
Method: (§3) A randomized, double-blind, placebo controlled trial was designed to evaluate the safety/tolerability, phamacokinetics and antiviral activity of single (in Part A) and multiple (in Part B) doses of Compound (1) (oleic acid solution, above) in subjects chronically infected with HCV genotype 1 (GT-1) without decompensated cirrhosis.
(§4) In ongoing Part B, four successive cohorts of 12 subjects are randomized (10:2) to receive multiple ascending doses of Compound 1 (40 mg BID, 120 mg BID, 240 mg QD, 240 mg BID) or placebo, over 8 days.

HCV genotype 1 = assay: Phase-1 first-in-human trial, antiviral activity (HCV RNA decline); type: in vivo; details: following single-dose exposure
Method: as §3, §4

[7] = Phase-1 first-in-human trial, safety/tolerability; type: in vivo
Method: as §3, §4

HCV replicon = assay: Anti-HCV replicon activity compared with prior art compound of formula (4); type: cell-based
Source text: The anti-HCV replicon activity of compound (1) was compared to that of a prior art (WO 05/063744) compound, the compound of formula (4)

HCV replicon cells = assay: In vitro combination study with IFN-α in replicon cells (MacSynergy); type: cell-based; details: MacSynergy analysis
Method: Pegylated interteron-α (PEG-IFN-α), in combination with ribavirin, represents the current standard of care for HCV-infected patients. In vitro combination studies of compound (1) and IFN-α were performed in replicon cells. Data was analyzed using the MacSynergy template developed by Prichard and Shipman.

[8] = non-replicon-containing cell line

C[C@@]1(O)[C@H](O)[C@@H](CO)O[C@H]1n1cnc2c(N)ncnc21 [2′CMeA, 2′C-methyl adenosine, reference compound]
EC50 ([1]; read-out: EC50 HCV-2a (reporter virus)): 0.194 ± 0.026 µM | CC50 (SL3 cells): 3.9 µM | CC50 (HepG2 cells; [8]): 24.3 ± 2.1 µM | CC50 (MH4 cells): 16 µM | EC50 ([2]; Huh-7 cells, 3 days, absence of HSA, read-out: EC50 HCV 2a (subgenomic replicon)): 1.61 ± 1.1 µM | CC50 (Huh-7 lucneo cells; HCV replicon-containing cell line): 7.2 ± 6 µM | EC50 [3]: 0.17 µM | EC50 ([4]; 3 days, absence of HSA, read-out: EC50 HCV 1b-lucneo (subgenomic replicon)): 0.175 ± 0.07 µM | EC50 ([4]; read-out: EC50 HCV 1b-lucneo 40 mg/mL HSA, 3 days, presence of 40 mg/mL human serum albumin): 0.25 µM | CC50 (MT4 cells; [8]): 3.5 ± 1.9 µM

Fc1ccccc1-c1nc2ccn(Cc3ccc(-c4ccc(C(F)(F)F)cc4C(F)(F)F)nn3)cc-2n1 [Compound 1, 5-({6-[2,4-bis(trifluoromethyl)phenyl]pyridazin-3-yl}methyl)-2-(2-fluorophenyl)-5H-imidazo[4,5-c]pyridine]
pH solubility profile, geometric mean (3 lots) [5]: 0.7 micrograms/ml | mean concentration 24 hours after dosing relative to protein binding adjusted in vitro HCV GT-1b Replicon EC50 ([6]; 240 mg fasted single dose): ~7 fold | increase of systemic exposure when administered with a high fat meal ([6]; HCV GT-1 infected subjects, single dose with food versus fasted): approximately 2 fold | CC50 (SL3 cells): > 50 µM | cytotoxicity in HepG2 cells (HepG2 cells; human): > 50,000 nM | time of maximal antiviral effect (HCV genotype 1): 24 h | CC50 (MH4 cells): > 50 µM | tolerability of single doses ([7]; single doses 40-480 mg, HCV GT-1 infected subjects, no serious or treatment-limiting adverse events): well tolerated | treatment emergent laboratory abnormalities ([7]; single doses, Part A): no Grade 3 or 4 treatment emergent laboratory abnormalities | most common adverse event ([7]; single doses, Part A, all AEs mild except one moderate headache): headache | times more potent than the compound of formula (4) (HCV replicon): about 330 times | EC50 ([2]; Hepatitis C virus, 72 h, Huh-7 cells, 3 days, absence of HSA, read-out: EC50 HCV 2a (subgenomic replicon)): 21.9 ± 19 µM | EC50 ([2]; Hepatitis C virus, Huh-7, 72 h, read-out: EC50 2a subgenomic replicon model): 21.9 µM | anti-HCV replicon activity against genotype 2a ([2]; compared with genotypes 1a and 1b): substantially less active | toxic effects at the highest concentration tested (Huh-7 lucneo cells; 50 μM, any of the cell lines Huh-7, SL3, MH4, HepG2, MT4): No toxic effects | cytotoxicity in Huh-7 cells (Huh-7 lucneo cells; human, Huh-7 lucneo cells (HCV replicon-containing)): > 50,000 nM | selectivity index (CC50/EC50) ([4]; CC50 in cell lines versus EC50 in HCV-1b and HCV-1a replicons): 13,000-80,000 | interaction between compound (1) and IFN-α (HCV replicon cells): additive interaction | cytotoxicity in MT4 cells (MT4 cells; human): > 50,000 nM

IFN-α
EC50 HCV-2a (reporter virus) [1]: 1.2 IU/mL | EC50 HCV 1b-lucneo (subgenomic replicon) ([4]; 3 days, absence of HSA): 2 IU/mL
